Drawing on ChEMBL document CHEMBL3611970, “Synthesis and evaluation of isatin-β-thiosemicarbazones as novel agents against antibiotic-resistant Gram-positive bacterial species” (2015), this text covers MIC for six compounds.

≈ marks a conversion by molar mass, not a printed value.

Common to all, as to type: functional
Assay [1] deals with Staphylococcus aureus. The assay can be described thus: Antimicrobial activity against methicillin-resistant Staphylococcus aureus 6281 clinical isolate after 16 hrs by broth microdilution method. Particulars: Staphylococcus aureus, 6281, 16 h.
The next assay has as its system Bacillus spizizenii. The assay can be described thus: Antimicrobial activity against Bacillus subtilis ATCC 6633 after 16 hrs by broth microdilution method. Particulars: ATCC 6633, 16 h.
For assay [2], the system named is Staphylococcus aureus. The assay can be described thus: Antimicrobial activity against Staphylococcus aureus ATCC 6538 after 16 hrs by broth microdilution method. Particulars: ATCC 6538, 16 h.
The subject of assay [3] is Enterococcus faecalis. The assay can be described thus: Antimicrobial activity against Enterococcus faecalis VRE-309 after 16 hrs by broth microdilution method. Conditions: VRE-309, 16 h.
Assay [4] has as its system Staphylococcus aureus. In words: Antimicrobial activity against methicillin-resistant Staphylococcus aureus 309-6 clinical isolate after 16 hrs by broth microdilution method. Particulars: 309-6, 16 h.
Assay [5] has as its system Staphylococcus aureus. In words: Antimicrobial activity against methicillin-resistant Staphylococcus aureus 309-4 clinical isolate after 16 hrs by broth microdilution method. Conditions: 309-4, 16 h.
Assay [6] relates to Staphylococcus aureus. The assay can be described thus: Antimicrobial activity against methicillin-resistant Staphylococcus aureus 6-42 clinical isolate after 16 hrs by broth microdilution method. Conditions: 6-42, 16 h.
Assay [7] deals with Staphylococcus aureus. The assay can be described thus: Antimicrobial activity against methicillin-resistant Staphylococcus aureus 309-8 clinical isolate after 16 hrs by broth microdilution method. Conditions: 309-8, 16 h.
In assay [8] the test system is Staphylococcus aureus. In words: Antimicrobial activity against methicillin-resistant Staphylococcus aureus 309-7 clinical isolate after 16 hrs by broth microdilution method. Conditions: 309-7, 16 h.
In assay [9] the test system is Staphylococcus aureus. In words: Antimicrobial activity against methicillin-resistant Staphylococcus aureus Chaoyang clinical isolate after 16 hrs by broth microdilution method.
Another assay deals with Pseudomonas aeruginosa. The assay can be described thus: Antimicrobial activity against Pseudomonas aeruginosa PAO1 after 16 hrs by broth microdilution method. Conditions: PAO1, 16 h.
The subject of a further assay is Klebsiella pneumoniae. The assay can be described thus: Antimicrobial activity against Klebsiella pneumoniae KP-249 clinical isolate after 16 hrs by broth microdilution method. Conditions: KP-249, 16 h.
Assay [10] has as its system Enterococcus faecalis. In words: Antimicrobial activity against vancomycin-susceptible Enterococcus faecalis after 16 hrs by broth microdilution method.
Assay [11] has as its system Staphylococcus aureus. The assay can be described thus: Antimicrobial activity against methicillin-resistant Staphylococcus aureus 309-3 clinical isolate after 16 hrs by broth microdilution method. Particulars: 309-3, 16 h.
Assay [12] deals with Staphylococcus aureus. In words: Antimicrobial activity against methicillin-resistant Staphylococcus aureus 8-24 clinical isolate after 16 hrs by broth microdilution method. Particulars: 8-24, 16 h.
The test system of assay [13] is Staphylococcus aureus. The assay can be described thus: Antimicrobial activity against methicillin-resistant Staphylococcus aureus 8-21 clinical isolate after 16 hrs by broth microdilution method. Particulars: 8-21, 16 h.
The subject of assay [14] is Staphylococcus aureus. In words: Antimicrobial activity against methicillin-resistant Staphylococcus aureus 309-1 clinical isolate after 16 hrs by broth microdilution method. Particulars: 309-1, 16 h.

As to `Cc1ccc(NC(=S)N/N=C2\C(=O)Nc3c(I)cccc32)cc1`, the MIC against Staphylococcus aureus [1] was 6.25 µg/mL (≈ 14.3 µM); with Bacillus spizizenii, 1.56 µg/mL (≈ 3.58 µM); with Staphylococcus aureus [2] it was 6.25 µg/mL (≈ 14.3 µM); in the assay on Enterococcus faecalis [3], 3.12 µg/mL (≈ 7.15 µM); in the assay on Staphylococcus aureus [4] it was 3.12 µg/mL (≈ 7.15 µM); with Staphylococcus aureus [5] it was 1.56 µg/mL (≈ 3.58 µM). The MIC was 0.78 µg/mL (≈ 1.79 µM) in the assay on Staphylococcus aureus [6]; 1.56 µg/mL (≈ 3.58 µM) in the assay on Staphylococcus aureus [7]; 0.78 µg/mL (≈ 1.79 µM) against Staphylococcus aureus [8]; 0.78 µg/mL (≈ 1.79 µM) in the assay with Staphylococcus aureus [9]; > 100 µg/mL with Pseudomonas aeruginosa; > 100 µg/mL with Klebsiella pneumoniae. Further, the MIC in the assay on Enterococcus faecalis [10] stood at 12.5 µg/mL (≈ 28.7 µM); against Staphylococcus aureus [11], 3.12 µg/mL (≈ 7.15 µM); in the assay with Staphylococcus aureus [12], 3.12 µg/mL (≈ 7.15 µM); in the assay on Staphylococcus aureus [13], 1.56 µg/mL (≈ 3.58 µM); with Staphylococcus aureus [14] it was 3.12 µg/mL (≈ 7.15 µM).

In the case of `Cc1cccc(NC(=S)N/N=C2\C(=O)Nc3c(Cl)cccc32)c1`, the MIC with Staphylococcus aureus [1] is 3.12 µg/mL (≈ 9.05 µM); with Bacillus spizizenii it was ≤ 0.78 µg/mL; in the assay on Staphylococcus aureus [2], 1.56 µg/mL (≈ 4.52 µM); in the assay with Enterococcus faecalis [3], 3.12 µg/mL (≈ 9.05 µM); against Staphylococcus aureus [4] it was 1.56 µg/mL (≈ 4.52 µM); against Staphylococcus aureus [5], 1.56 µg/mL (≈ 4.52 µM). For the same compound, the MIC was 0.78 µg/mL (≈ 2.26 µM) in the assay with Staphylococcus aureus [6]; 1.56 µg/mL (≈ 4.52 µM) against Staphylococcus aureus [7]; 0.78 µg/mL (≈ 2.26 µM) in the assay on Staphylococcus aureus [8]; 0.78 µg/mL (≈ 2.26 µM) against Staphylococcus aureus [9]; > 100 µg/mL against Pseudomonas aeruginosa; > 100 µg/mL against Klebsiella pneumoniae. Moreover, the MIC against Enterococcus faecalis [10] is 6.25 µg/mL (≈ 18.1 µM); against Staphylococcus aureus [11], 1.56 µg/mL (≈ 4.52 µM); with Staphylococcus aureus [12], 1.56 µg/mL (≈ 4.52 µM); in the assay on Staphylococcus aureus [13], 0.78 µg/mL (≈ 2.26 µM); against Staphylococcus aureus [14], 0.78 µg/mL (≈ 2.26 µM).

In the case of `O=C1Nc2c(I)cccc2/C1=N/NC(=S)Nc1ccc(Cl)cc1`, the MIC against Staphylococcus aureus [1] was 3.12 µg/mL (≈ 6.83 µM); against Bacillus spizizenii, ≤ 0.78 µg/mL; against Staphylococcus aureus [2] it was 1.56 µg/mL (≈ 3.42 µM); with Enterococcus faecalis [3], 3.12 µg/mL (≈ 6.83 µM); in the assay with Staphylococcus aureus [4] it was 3.12 µg/mL (≈ 6.83 µM); against Staphylococcus aureus [5], 0.78 µg/mL (≈ 1.71 µM). Also, the MIC was 1.56 µg/mL (≈ 3.42 µM) in the assay with Staphylococcus aureus [6]; 1.56 µg/mL (≈ 3.42 µM) with Staphylococcus aureus [7]; 0.78 µg/mL (≈ 1.71 µM) in the assay on Staphylococcus aureus [8]; 0.78 µg/mL (≈ 1.71 µM) against Staphylococcus aureus [9]; > 100 µg/mL against Pseudomonas aeruginosa; > 100 µg/mL against Klebsiella pneumoniae. For the same compound, the MIC in the assay with Enterococcus faecalis [10] was determined as 6.25 µg/mL (≈ 13.7 µM); against Staphylococcus aureus [11] it was 1.56 µg/mL (≈ 3.42 µM); against Staphylococcus aureus [12], 1.56 µg/mL (≈ 3.42 µM); against Staphylococcus aureus [13], 1.56 µg/mL (≈ 3.42 µM); in the assay with Staphylococcus aureus [14], 1.56 µg/mL (≈ 3.42 µM).

Turning to `COc1ccccc1NC(=S)N/N=C1\C(=O)Nc2c(I)cccc21`, the MIC in the assay on Staphylococcus aureus [1] was 25 µg/mL (≈ 55.3 µM); against Bacillus spizizenii, 1.56 µg/mL (≈ 3.45 µM); in the assay with Staphylococcus aureus [2], > 100 µg/mL; with Enterococcus faecalis [3], > 100 µg/mL; in the assay with Staphylococcus aureus [4] it was 25 µg/mL (≈ 55.3 µM); in the assay on Staphylococcus aureus [5], 12.5 µg/mL (≈ 27.6 µM). Also, the MIC against Staphylococcus aureus [6] was 6.25 µg/mL (≈ 13.8 µM); with Staphylococcus aureus [7], 12.5 µg/mL (≈ 27.6 µM); in the assay on Staphylococcus aureus [8], 6.25 µg/mL (≈ 13.8 µM); with Staphylococcus aureus [9], 6.25 µg/mL (≈ 13.8 µM); against Pseudomonas aeruginosa it was > 100 µg/mL; in the assay with Klebsiella pneumoniae it was > 100 µg/mL. Moreover, the MIC in the assay on Enterococcus faecalis [10] was > 100 µg/mL; with Staphylococcus aureus [11] it was 25 µg/mL (≈ 55.3 µM); in the assay with Staphylococcus aureus [12], 12.5 µg/mL (≈ 27.6 µM); in the assay on Staphylococcus aureus [13], 12.5 µg/mL (≈ 27.6 µM); with Staphylococcus aureus [14], 12.5 µg/mL (≈ 27.6 µM).

Turning to `O=C1Nc2c(Br)cccc2/C1=N/NC(=S)Nc1ccc(Cl)cc1`, the MIC is 1.56 µg/mL (≈ 3.81 µM) against Staphylococcus aureus [1]; ≤ 0.78 µg/mL in the assay with Bacillus spizizenii; 1.56 µg/mL (≈ 3.81 µM) against Staphylococcus aureus [2]; 1.56 µg/mL (≈ 3.81 µM) against Enterococcus faecalis [3]; 1.56 µg/mL (≈ 3.81 µM) against Staphylococcus aureus [4]; 0.78 µg/mL (≈ 1.9 µM) in the assay on Staphylococcus aureus [5]. Besides, the MIC in the assay on Staphylococcus aureus [6] was 0.78 µg/mL (≈ 1.9 µM); in the assay on Staphylococcus aureus [7], 0.78 µg/mL (≈ 1.9 µM); against Staphylococcus aureus [8], 0.39 µg/mL (≈ 0.952 µM); in the assay on Staphylococcus aureus [9], 0.39 µg/mL (≈ 0.952 µM); with Pseudomonas aeruginosa, > 100 µg/mL; against Klebsiella pneumoniae, > 100 µg/mL. Also, the MIC amounted to 3.12 µg/mL (≈ 7.62 µM) in the assay on Enterococcus faecalis [10]; 0.78 µg/mL (≈ 1.9 µM) against Staphylococcus aureus [11]; 1.56 µg/mL (≈ 3.81 µM) in the assay with Staphylococcus aureus [12]; 0.78 µg/mL (≈ 1.9 µM) against Staphylococcus aureus [13]; 0.78 µg/mL (≈ 1.9 µM) against Staphylococcus aureus [14].

As to `Cc1ccc(NC(=S)N/N=C2\C(=O)Nc3c(Br)cccc32)cc1`, the MIC in the assay on Staphylococcus aureus [1] was 3.12 µg/mL (≈ 8.01 µM); against Bacillus spizizenii, ≤ 0.78 µg/mL; against Staphylococcus aureus [2] it was 1.56 µg/mL (≈ 4.01 µM); against Enterococcus faecalis [3] it was > 100 µg/mL; against Staphylococcus aureus [4], 1.56 µg/mL (≈ 4.01 µM); against Staphylococcus aureus [5], 0.78 µg/mL (≈ 2 µM). The MIC was 0.78 µg/mL (≈ 2 µM) against Staphylococcus aureus [6]; 0.78 µg/mL (≈ 2 µM) in the assay on Staphylococcus aureus [7]; 0.78 µg/mL (≈ 2 µM) in the assay with Staphylococcus aureus [8]; 0.39 µg/mL (≈ 1 µM) against Staphylococcus aureus [9]; > 100 µg/mL in the assay with Pseudomonas aeruginosa; > 100 µg/mL against Klebsiella pneumoniae. For the same compound, the MIC in the assay with Enterococcus faecalis [10] was > 100 µg/mL; against Staphylococcus aureus [11] it was 0.78 µg/mL (≈ 2 µM); against Staphylococcus aureus [12] it was 1.56 µg/mL (≈ 4.01 µM); against Staphylococcus aureus [13], 0.78 µg/mL (≈ 2 µM); with Staphylococcus aureus [14] it was 0.78 µg/mL (≈ 2 µM).
